{"source": "patent US7122294B2", "about": "“Photoacid generators with perfluorinated multifunctional anions” (3M Innovative Properties Company, priority 2003, dated 2006)", "key": {"[1]": {"assay": "Elimination of perfluoroalkylsulfonates from the body", "format": "in vivo", "conditions": "tested in the form of its potassium salt"}, "[2]": {"assay": "Photo-DSC/DSC cationic curing activity of PAGs in VEX 5015", "parameters": "PDSC Peak Max / PDSC Induction Time: unit not given here", "method": "(§1) Photo-DSC/DSC: Standard (hermetic) liquid sample pans were used. Sample size was kept in the 6 to 8 mg range. Samples were tested using a Dupont Photo-DSC/DSC instrument (available from DuPont, Wilmington, Del.). The light source was a 200 W Hg lamp that delivered about 60 mw/cm at the sample. Samples were exposed in open pans for 5 minutes to the light source at 30° C. then removed from the instrument, sealed and a standard DSC scan run at 10° C./minute to 300° C. A separate DSC experiment was carried out using a sealed sample pan and no prior light exposure to determine the dark reactivity of these PAGs. Comparison of the DSC traces before and after light exposure enables differentiation between the thermal reactivity of the PAGs (in the dark) and their photochemical activity.\n(§2) This example describes photo-DSC/DSC experiments designed to quantitatively compare the relative cationic curing reactivities of PAGs of the present invention containing difunctional fluoroorganic sulfonate anions with related PAGs having identical cations and monofunctional perfluoroalkanesulfonate anions. Relative reactivities were measured in three different cationically polymerizable monomer systems, including two different types of epoxies and one vinyl ether.\n(§3) The photo-DSC experiment provides information on the photo-cure speed at 30° C. as measured by the induction time (onset) and time to reach the peak maximum in the curing exotherm. […] The energy released under the curing exotherm is a measure of the extent of cure; larger values mean more cure has taken place during the light exposure. […] Comparison with the DSC traces recorded with no prior light exposure provides a measure of the increase in activity after photoactivation of the PAG.\n(§4) General: Stock solutions of three cationically curable monomers were prepared as shown in Table 3 with 0.1% (w/w) isopropylthioxanthone (ITX). Epon 828 is a difunctional glycidyl ether epoxy from Shell, ERL-4221 is a difunctional cycloaliphatic epoxy from Union Carbide and VEX 5015 is a trifunctional vinyl ether from Allied Signal. Because of the low sensitivity of these compositions to room lights, all sample preparation was done with the lab lights on but the hood lights off. All PAGs were formulated at 1.0% by weight in the stock monomer/sensitizer solutions. Into a small aluminum pan was weighed 0.02 g of PAG and 0.04 g of propylene carbonate used to promote dissolution of the PAG in the monomer. The pan was heated briefly on a hot plate set at 100° C. to dissolve the PAG, then 2.0 g the stock monomer/sensitizer solution was added. The solution was briefly heated again on a hot plate set at 100° C. to allow complete mixing of the components, then the solution was allowed to cool to room temperature before using."}, "[3]": {"assay": "Photo-DSC/DSC cationic curing activity of PAGs in Epon 828", "parameters": "PDSC Peak Max / PDSC Induction Time: unit not given here", "method": "as §1, §2, §3, §4"}, "[4]": {"assay": "Photo-DSC/DSC cationic curing activity of PAGs in ERL-4221", "parameters": "PDSC Peak Max / PDSC Induction Time: unit not given here", "method": "as §1, §2, §3, §4"}, "[5]": {"assay": "Thermal gravimetric analysis (TGA), onset of thermal decomposition", "format": "physicochemical", "conditions": "under nitrogen, ramp 10° C. per minute", "method": "TGA was performed on a Perkin-Elmer Instruments TGA Model 7 in an open platinum pan. The onset of thermal decomposition, Td, was taken as the thermal decomposition temperature of the photoacid generators and was determined under nitrogen atmosphere using a temperature ramp of 10° C. per minute. The onset temperature was determined by the intersection of tangents to the low temperature portion of the baseline and the first inflection point in the wt % vs. temperature curve."}, "[6]": {"assay": "Volatility by vacuum distillation from 100% H2SO4", "format": "physicochemical", "method": "This example describes an unsuccessful attempt to vacuum distill the difunctional perfluoroorganic disulfonic acid, HO3S(CF2)4SO3H, illustrating the very low volatility of this diacid compared to monofunctional perfluoroalkanesulfonic acids of even higher molecular weight, like C8F17SO3H. The dipotassium salt, KO3S(CF2)4SO3K (40.0 g) and 100% H2SO4 (241 g) were charged to a vacuum distillation apparatus comprising a 250 mL, three-necked flask equipped with a heating mantle, magnetic stirring bar, an insulated short path distillation head and a 100 mL receiver flask. The pot temperature and head temperature were continuously monitored with J-type thermocouple probes. […] The pressure was reduced to 3.6 Torr and the pot temperature raised to 178° C., but still there was no boiling or distillation. The pressure was reduced further and additional heat was applied to the pot to force distillation. Distillate eventually started to collect at a pot temperature of 196° C. and a pressure of 1.75 Torr. A total of 73.3 g of distillate was collected between 184–186° C. (head temperature) before the distillation was terminated. Since this represents 222% of the theoretical HO3S(CF2)4SO3H yield, it was surmised that the distillate was probably mostly sulfuric acid. The presence of significant H2SO4 in the distillate was confirmed by precipitation of BaSO4 upon treatment of an aqueous solution of the distillate with BaCl2.\nThe remaining pot retains were diluted in about 700 mL of water and treated with 350 mL of tributylamine with stirring. A white solid precipitate presumed to be Bu3NH+−O3S(CF2)4SO3^−Bu3NH^+ formed which was isolated by suction filtration washed with three portions of water and air-dried by suction to yield 44.07 g (66% of theory). […] Thus, even though the molecular weight of this monofunctional acid is 38% greater than that of HO3S(CF2)4SO3H, it is much more volatile and distills at much lower temperature than the difunctional acid. […]"}, "[7]": {"conditions": "VEX 5015, DSC scan after light exposure, two values = two exotherms"}, "[8]": {"conditions": "Epon 828, DSC scan after light exposure"}, "[9]": {"conditions": "Epon 828, no prior light exposure"}, "[10]": {"conditions": "ERL-4221, DSC scan after light exposure"}, "[11]": {"conditions": "ERL-4221, no prior light exposure"}}, "note": "Values joined by “and” are separate entries in the source; they are usually repeats but may differ in a detail not shown here. Equal entries are not always repeated."}
{"compound": "O=S(=O)(O)C(F)(F)C(F)(F)C(F)(F)C(F)(F)F", "note": "[perfluorobutylsulfonate]", "values": [{"measurement": "elimination from the body", "setting": "[1]", "value": "eliminates from the body more effectively than perfluorohexylsulfonate and much more effectively than perfluorooctylsulfonate"}]}
{"compound": "CC(C)(C)c1ccc([I+]c2ccc(C(C)(C)C)cc2)cc1.CC(C)(C)c1ccc([I+]c2ccc(C(C)(C)C)cc2)cc1.O=S(=O)([O-])C(F)(F)C(F)(F)C(F)(F)C(F)(F)S(=O)(=O)[O-]", "note": "[PAG2, [(p-(CH3)3C—C6H4)2I^+]2-O3S(CF2)4SO3—]", "values": [{"measurement": "PDSC Energy", "setting": "[2]; VEX 5015, 1.0% PAG, 0.1% ITX, light exposure 5 min at 30° C.", "value": 220, "unit": "J/g"}, {"measurement": "DSC after PDSC Energy", "setting": "[2]; VEX 5015, DSC scan after light exposure", "value": 31, "unit": "J/g"}, {"measurement": "DSC after PDSC Onset Temp", "setting": "[2]; [7]", "value": 135, "unit": "C.°"}, {"measurement": "DSC after PDSC Peak Max", "setting": "[2]; [7]", "value": 158, "unit": "°C"}, {"measurement": "PDSC Induction Time", "setting": "[2]; VEX 5015, light exposure at 30° C.", "value": 1.3}, {"measurement": "DSC Only (dark) Onset Temp", "setting": "[2]; VEX 5015, no prior light exposure, two values = two exotherms", "value": "100, C.° and 160 C.°"}, {"measurement": "PDSC Peak Max", "setting": "[2]; VEX 5015, time to peak maximum of curing exotherm at 30° C.", "value": 3.4}, {"measurement": "PDSC Energy", "setting": "[3]; Epon 828, 1.0% PAG, 0.1% ITX, light exposure 5 min at 30° C.", "value": 7, "unit": "J/g"}, {"measurement": "DSC after PDSC Onset Temp", "setting": "[3]; Epon 828, DSC scan 10° C./minute after light exposure", "value": 110, "unit": "C.°"}, {"measurement": "DSC after PDSC Energy", "setting": "[3]; [8]", "value": 541, "unit": "J/g"}, {"measurement": "DSC after PDSC Peak Max", "setting": "[3]; [8]", "value": 194, "unit": "°C"}, {"measurement": "PDSC Induction Time", "setting": "[3]; Epon 828, light exposure at 30° C.", "value": 17.1}, {"measurement": "DSC Only (dark) Energy", "setting": "[3]; [9]", "value": 574, "unit": "J/g"}, {"measurement": "DSC Only (dark) Onset Temp", "setting": "[3]; [9]", "value": 175, "unit": "C.°"}, {"measurement": "DSC Only (dark) Peak Max", "setting": "[3]; [9]", "value": 232, "unit": "°C"}, {"measurement": "PDSC Peak Max", "setting": "[3]; Epon 828, time to peak maximum of curing exotherm at 30° C.", "value": 27}, {"measurement": "solubility in PGMEA", "value": "greater than 4 wt %"}, {"measurement": "PDSC Energy", "setting": "[4]; ERL-4221, 1.0% PAG, 0.1% ITX, light exposure 5 min at 30° C.", "value": 10, "unit": "J/g"}, {"measurement": "DSC after PDSC Onset Temp", "setting": "[4]; ERL-4221, DSC scan 10° C./minute after light exposure", "value": 60, "unit": "C.°"}, {"measurement": "DSC after PDSC Energy", "setting": "[4]; [10]", "value": 538, "unit": "J/g"}, {"measurement": "DSC after PDSC Peak Max", "setting": "[4]; [10]", "value": 142, "unit": "°C"}, {"measurement": "PDSC Induction Time", "setting": "[4]; ERL-4221, light exposure at 30° C.", "value": 14.8}, {"measurement": "DSC Only (dark) Energy", "setting": "[4]; [11]", "value": 574, "unit": "J/g"}, {"measurement": "DSC Only (dark) Onset Temp", "setting": "[4]; [11]", "value": 150, "unit": "C.°"}, {"measurement": "DSC Only (dark) Peak Max", "setting": "[4]; [11]", "value": 196}, {"measurement": "PDSC Peak Max", "setting": "[4]; ERL-4221, time to peak maximum of curing exotherm at 30° C.", "value": 25}, {"measurement": "onset of thermal decomposition (TGA)", "setting": "[5]", "value": 237, "unit": "°C"}]}
{"compound": "O=S(=O)(O)C(F)(F)C(F)(F)C(F)(F)C(F)(F)S(=O)(=O)O", "note": "[HO3S(CF2)4SO3H]", "values": [{"measurement": "volatility: outcome of vacuum distillation", "setting": "[6]; from 100% H2SO4, down to 1.75 Torr, pot temperature up to 196° C.", "value": "did not distill"}]}
{"compound": "O=S(=O)(O)C(F)(F)C(F)(F)C(F)(F)C(F)(F)C(F)(F)C(F)(F)C(F)(F)C(F)(F)F", "note": "[C8F17SO3H]", "values": [{"measurement": "head temperature of distillation", "setting": "[6]; 8.00 Torr, from 100% H2SO4", "value": "135–142 °C"}, {"measurement": "pot temperature of distillation", "setting": "[6]; 8.00 Torr, from 100% H2SO4", "value": "148–157 °C"}]}
